Read-outs that look alike come from different tables or passages of the source.
Tested on: PDE4
Assay: Evaluation of PDE4 inhibitory activity, scintillation proximity assay
Format: biochemical
Settings: scintillation proximity assay
Procedure: The BDE4 inhibitory activity was measured using scintillation proximity assay (SPA) as follows. First, a test compound dissolved in dimethyl sulfoxide was diluted 1:10 in reaction buffer solution which contained 50 mM of Tris-HCl with pH 7.4, 8.3 mM of MgCl2, 1.7 mM of EGTA, and 3 mg/mL of bovine serum albumin (BSA). Then, 10 μL of the diluted solution was added in a 96-well assay plate. Moreover, 50 μL of PDE4 (enzyme preparation) diluted 1:375 in the reaction buffer solution was added, and then 40 μL of [2,8-^3H]-adenosine-3′,5′-cyclic phosphate triethylammonium salt diluted 1:1000 in the reaction buffer solution was added. The mixture was allowed to stand at room temperature for 120 minutes. Thereafter, […] of RNA binding YSi-SPA beads suspension containing ZnSO4 was added and the mixture was allowed to stand at room temperature for 15 minutes, followed by adsorption of the enzyme reaction product to the beads. After that, the radioactivity was measured using a liquid scintillation counter for a 96-well plate. The mixture without the enzyme preparation added but only the reaction buffer solution added is a blank, and the mixture with the enzyme preparation added and only dimethyl sulfoxide added instead of the test compound is a control.
In addition, the PDE4 inhibitory activity (concentration that inhibits PDE4 activity by 50%=concentration for the inhibition rate of 50% (IC50)) of the test compound was calculated from the inhibition curves based on the inhibition rates for various concentrations of the test compound.

[1] = read-out: PDE4 Inhibitory Activity (Evaluation 1; concentration for the inhibition rate of 50%)
[2] = class symbols of Evaluation 1, read-out: PDE4 Inhibitory Activity (concentration for the inhibition rate of 50%, IC50), Evaluation 1

Row | Compound | IC50 [1] [nM] | IC50 [2] [nM]
1 | CC(C)C(O)C(F)(F)Oc1ccc(-c2nccs2)c2oc(N3CC4CC(C3)N4)nc12 (stereo not drawn) [Example 362, 1-((2-(3,6-Diazabicyclo[3.1.1]heptan-3-yl)-7-(thiazol-2-yl)benzo[d]oxazol-4-yl)oxy)-1,1-difluoro-3-methylbutan-2-ol] | < 100 | 
2 | OCC(F)(F)Oc1ccc(-n2cccn2)c2oc(N3CC4CC(C3)N4)nc12 [Example 320, 2-((2-(3,6-Diazabicyclo[3.1.1]heptan-3-yl)-7-(1H-pyrazol-1-yl)benzo[d]oxazol-4-yl)oxy)-2,2-difluoroethan-1-ol] | < 100 | 
3 | CC(=O)Nc1ccc(-c2nccs2)c2oc(N3CC4CCCC(C3)N4)nc12 [Example 34, N-(2-(3,9-Diazabicyclo[3.3.1]nonan-3-yl)-7-(thiazol-2-yl)benzo[d]oxazol-4-yl)acetamide] |  | < 100
4 | CCOC(=O)c1cc(-c2nccs2)c2oc(N3CC4CC(C3)N4)nc2c1C(F)(F)F [Example 165, Ethyl 2-(3,6-diazabicyclo[3.1.1]heptan-3-yl)-7-(thiazol-2-yl)-4-(trifluoromethyl)benzo[d]oxazole-5-carboxylate] |  | < 100
5 | COC(c1ccc(-c2nccs2)c2oc(N3CC4CC(C3)N4)nc12)C(F)(F)F (stereo not drawn) [Example 123, 2-(3,6-Diazabicyclo[3.1.1]heptan-3-yl)-7-(thiazol-2-yl)-4-(2,2,2-trifluoro-1-methoxyethyl)benzo[d]oxazole] |  | < 100
6 | C[S+]([O-])c1cc(-c2nccs2)c2oc(N3CC4CC(C3)N4)nc2c1 (stereo not drawn) [Example 43, 2-(3,6-Diazabicyclo[3.1.1]heptan-3-yl)-5-(methylsulfinyl)-7-(thiazol-2-yl)benzo[d]oxazole] |  | < 100
7 | COC(=O)c1ccc(-c2nccs2)c2oc(N3CC4CCC(C3)N4)nc12 [Example 237, Methyl 2-(3,8-diazabicyclo[3.2.1]octan-3-yl)-7-(thiazol-2-yl)benzo[d]oxazole-4-carboxylate] | < 100 | 
8 | CCC(F)(F)Oc1ccc(-c2nccs2)c2oc(N3CC4CC(C3)N4)nc12 [Example 402, 2-(3,6-Diazabicyclo[3.1.1]heptan-3-yl)-4-(1,1-difluoropropoxy)-7-(thiazol-2-yl)benzo[d]oxazole] | < 100 | 
9 | CC(C)(O)c1cc(-c2nccs2)c2oc(N3CC4CC(C3)N4)nc2c1C(F)(F)F [Example 178, 2-(2-(3,6-Diazabicyclo[3.1.1]heptan-3-yl)-7-(thiazol-2-yl)-4-(trifluoromethyl)benzo[d]oxazol-5-yl)propan-2-ol] |  | < 100
10 | OC(c1ccc(-c2nccs2)c2oc(N3CC4CCC(C3)N4O)nc12)C(F)(F)F (stereo not drawn) [Example 378, 3-(7-(Thiazol-2-yl)-4-(2,2,2-trifluoro-1-hydroxyethyl)benzo[d]oxazol-2-yl)-3,8-diazabicyclo[3.2.1]octan-8-ol] | 100 to 1000 | 
11 | COC(C)(C)c1cc(-c2nccs2)c2oc(N3CC4CCC(C3)N4)nc2c1 [Example 175, 2-(3,8-Diazabicyclo[3.2.1]octan-3-yl)-5-(2-methoxypropan-2-yl)-7-(thiazol-2-yl)benzo[d]oxazole] |  | < 100
12 | FC(F)(F)c1cc(-c2nccs2)c2oc(N3CC4CCCC(C3)N4)nc2c1 [Example 53, 2-(3,9-Diazabicyclo[3.3.1]nonan-3-yl)-7-(thiazol-2-yl)-5-(trifluoromethyl)benzo[d]oxazole] |  | < 100
13 | Oc1cc(-c2nccs2)c2oc(N3CC4CCCC(C3)N4)nc2c1 [Example 65, 2-(3,9-Diazabicyclo[3.3.1]nonan-3-yl)-7-(thiazol-2-yl)benzo[d]oxazol-5-ol] |  | < 100
14 | FC(F)(F)COc1cc(-c2nccs2)c2oc(N3CC4CC(C3)N4)nc2c1 [Example 67, 2-(3,6-Diazabicyclo[3.1.1]heptan-3-yl)-7-(thiazol-2-yl)-5-(2,2,2-trifluoroethoxy)benzo[d]oxazole] |  | < 100
15 | COC(C)(C)COC(c1ccc(-c2nccs2)c2oc(N3CC4CC(C3)N4)nc12)C(F)(F)F (stereo not drawn) [Example 281, 2-(3,6-Diazabicyclo[3.1.1]heptan-3-yl)-7-(thiazol-2-yl)-4-(2,2,2-trifluoro-1-(2-methoxy-2-methylpropoxy)ethyl)benzo[d]oxazole] | < 100 | 
